# Test system: not given
# Test: not given
# Conditions: not given
row,melting point [°C],SMILES
1,143.2 to 144.9,"COc1ccccc1-c1n[nH]c2cc(Oc3ccc(F)cc3F)cnc12 [Example 8, 6-(2,4-Difluoro-phenoxy)-3-(2-methoxy-phenyl)-1H-pyrazolo[4,3-b]pyridine]"
2,221.3 to 223.1,"Clc1ccccc1Oc1ncc2c(-c3cccs3)n[nH]c2n1 [Example 14, 6-(2-Chloro-phenoxy)-3-thiophen-2-yl-1H-pyrazolo[3,4-d]pyrimidine]"
3,254.6 to 258.2,"C[C@H](O)CNc1nc(Oc2ccc(F)cc2F)nc2[nH]nc(-c3ccccc3Cl)c12 [Example 16, (S)-1-[3-(2-chlorophenyl)-6-(2,4-difluorophenoxy)-1H-pyrazolo[3,4-d]pyrimidin-4-ylamino]propan-2-ol]"
4,179.2 to 181.3,"OC[C@H](O)COc1nc(Oc2ccc(F)cc2F)nc2[nH]nc(-c3ccccc3Cl)c12 [Example 20, (S)-3-[3-(2-Chloro-phenyl)-6-(2,4-difluoro-phenoxy)-1H-pyrazolo[3,4-d]pyrimidin-4-yloxy]-propane-1,2-diol]"
5,171.2 to 172,"C[C@H](O)CNc1nc(Oc2ccc(F)cc2F)cc2[nH]nc(-c3ccccc3Cl)c12 [Example 24, (S)-1-[3-(2-Chloro-phenyl)-6-(2,4-difluoro-phenoxy)-1H-pyrazolo[4,3-c]pyridin-4-ylamino]-propan-2-ol]"

# Second part, the molecule before the results:
row,SMILES,melting point [°C]
1,"Fc1ccc(Oc2ncc3c(-c4ccccc4Cl)n[nH]c3n2)c(F)c1 [Example 1, 3-(2-chlorophenyl)-6-(2,4-difluoro-phenoxy)-1H-pyrazolo[3,4-d]pyrimidine]",173.4 to 176.4
2,"Fc1ccccc1Nc1ncc2c(-c3ccccc3Cl)n[nH]c2n1 [Example 2, [3-(2-chlorophenyl)-1H-pyrazolo[3,4-d]pyrimidin-6-yl]-(2-fluorophenyl)amine]",230.2 to 232.4
3,"Fc1ccc(Sc2ncc3c(-c4ccccc4Cl)n[nH]c3n2)c(F)c1 [Example 3, 3-(2-chlorophenyl)-6-(2,4-difluorophenylsulfanyl)-1H-pyrazolo[3,4-d]pyrimidine]",177.6 to 183.2
4,"Fc1ccc(Oc2cnc3c(-c4ccccc4Cl)n[nH]c3n2)c(F)c1 [Example 5, 3-(2-chlorophenyl)-6-(2,4-difluorophenoxy)-1H-pyrazolo[3,4-b]pyrazine]",240.5 to 241.5

# Target: T1, p38 MAP kinase (Homo sapiens, UniProt Q16539)
# T1 construct: made in house; host or cells: E. coli (co-expressed with SEK-1 and MEKK to obtain the phosphorylated form)
# Test: p38 (MAP) kinase in vitro assay
# Type: biochemical
# Conditions: transfer of γ-33P from ATP to Myelin Basic Protein by phosphorylated recombinant p38 MAP kinase
# Method: This example illustrates a p38 (MAP) kinase in vitro assay useful for evaluating the compounds of the invention.
# The p38 MAP kinase inhibitory activity of compounds of this invention in vitro was determined by measuring the transfer of the γ-phosphate from γ-^33P-ATP by p-38 kinase to Myelin Basic Protein (MBP), using a minor modification of the method described in Ahn, et al., J. Biol. Chem. 266:4220-4227 (1991). […] The phosphorylated form of the recombinant p38 MAP kinase was co-expressed with SEK-1 and MEKK in E. Coli (see, Khokhlatchev, et al., J. Biol. Chem. 272:11057-11062 (1997)) and then purified by affinity chromatography using a Nickel column.
# The phosphorylated p38 MAP kinase was diluted in kinase buffer (20 mM 3-(N-morpholino)propanesulfonic acid, pH 7.2, 25 mM β-glycerol phosphate, 5 mM ethylene glycol-bis(beta-aminoethyl ether)-N,N,N′,N′-tetraacetic acid, 1 mM sodium or tho-vanadate, 1 mM dithiothreitol, 40 mM magnesium chloride). Test compound dissolved in DMSO or only DMSO (control) was added and the samples were incubated for 10 min at 30° C. The kinase reaction was initiated by the addition of a substrate cocktail containing MBP and γ-^33P-ATP. […] The phosphorylated MBP was then separated from the residual γ-^33P-ATP using a phosphocellulose membrane (Millipore, Bedfrod, Mass.) and quantitated using a scintillation counter (Packard, Meriden, Conn.).
# T1 sequence (Q16539 whole entry): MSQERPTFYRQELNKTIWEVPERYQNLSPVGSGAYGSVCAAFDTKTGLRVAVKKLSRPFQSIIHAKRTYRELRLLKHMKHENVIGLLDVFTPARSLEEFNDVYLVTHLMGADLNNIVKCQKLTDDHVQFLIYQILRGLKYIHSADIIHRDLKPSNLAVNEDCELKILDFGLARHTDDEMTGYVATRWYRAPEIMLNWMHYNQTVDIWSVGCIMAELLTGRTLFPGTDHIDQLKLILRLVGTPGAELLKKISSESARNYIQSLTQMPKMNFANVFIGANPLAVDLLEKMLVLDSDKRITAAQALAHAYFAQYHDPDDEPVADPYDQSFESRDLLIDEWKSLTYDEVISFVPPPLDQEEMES
row,IC50 [nM],SMILES
1,~1,"CC(C)(O)CNc1nc(Oc2ccc(F)cc2F)cc2[nH]nc(-c3cc(F)ccc3F)c12 [Compound 45, 1-[6-(2,4-Difluoro-phenoxy)-3-(2,5-difluoro-phenyl)-1H-pyrazolo[4,3-c]pyridin-4-ylamino]-2-methyl-propan-2-ol]"

# Source: patent publication US7566708B2, “Substituted pyrazolo{3,4-D}pyrimidines as p38 map kinase inhibitors” (Roche Palo Alto LLC, priority 2005, dated 2009)
